Test results from PMC9617675 (Antiviral Research, 2022).
Where two headings read alike, the source gives them in different places.

Test system: SARS-CoV-2 Delta variant
Details: for lung histopathology (H&E): day 2 and day 4; for brain histopathology (H&E): day 4
[1] = day 4, both 100 mpk and 200 mpk groups

O=C[C@H](C[C@@H]1CCNC1=O)NC(=O)[C@H](CC1CCCCC1)NC(=O)c1cc2ccccc2[nH]1 [FB2001]
change in the body weight of the mice (100 mpk and 200 mpk groups, vs day 0): no significant change
reduction of lung viral load (100 mpk, day 2, vs vehicle): 1.02 log10 copies/g
lung histopathology (H&E) (100 mpk): mild interstitial inflammatory cell infiltration
brain histopathology (H&E) (100 mpk): some neurons were denatured
reduction of brain viral load (100 mpk, day 4, vs vehicle): 2.37 log10 copies/g
reduction of lung viral load (100 mpk, day 4, vs vehicle): 0.67 log10 copies/g
reduction of lung viral load (200 mpk, day 2, vs vehicle): 1.60 log10 copies/g
reduction of virus titer in lung (200 mpk, day 2, vs vehicle): 3.57 log10 PFU/g
lung histopathology (H&E) (200 mpk): decreased inflammation and normal alveolar spaces
brain histopathology (H&E) (200 mpk): Neuronal cells were neatly arranged and abundant
reduction of brain viral load (200 mpk, day 4, vs vehicle): 5.26 log10 copies/g
reduction of lung viral load (200 mpk, day 4, vs vehicle): 1.14 log10 copies/g
brain immunohistochemistry staining of viral NP [1]: nearly cleared
lung immunohistochemistry staining of viral NP [1]: almost cleared
Viral titer in brain, Mean (mouse, in vivo): below the detection limit
Viral titer in lung, Mean (mouse, in vivo): below the detection limit
